# Reference: BindingDB's records for doi:10.1021/jm070654j (University of Zurich, 2008)
# Target: Cyclin-dependent kinase 1 (Homo sapiens, UniProt P06493)
# Test: Inhibition of CDK1
# Sequence of Cyclin-dependent kinase 1 (P06493 whole entry): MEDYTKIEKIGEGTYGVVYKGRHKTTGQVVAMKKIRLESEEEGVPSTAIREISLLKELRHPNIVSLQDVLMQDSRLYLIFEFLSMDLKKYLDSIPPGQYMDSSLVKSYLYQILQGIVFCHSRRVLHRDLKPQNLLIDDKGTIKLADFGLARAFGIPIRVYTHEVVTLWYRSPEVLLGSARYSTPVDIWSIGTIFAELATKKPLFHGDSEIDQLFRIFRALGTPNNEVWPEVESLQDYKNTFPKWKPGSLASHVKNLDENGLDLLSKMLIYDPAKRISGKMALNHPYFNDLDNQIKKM
smiles,measurement,value
Cc1cc(Cl)cc2c1NC(=O)C2C=Nc1ccc(S(N)(=O)=O)cc1 (stereo not drawn),IC50,> 1000 nM
Cc1cccc2c1NC(=O)C2C=Nc1ccc(S(N)(=O)=O)cc1 (stereo not drawn),IC50,> 1000 nM
Cc1cc(C)c2c(c1)C(C=Nc1ccc(S(N)(=O)=O)cc1)C(=O)N2 (stereo not drawn),IC50,> 1000 nM
